One assay concerns the target DGKα (Homo sapiens (Human), UniProt P23743). Nature of the assay: Biochemical DGK IC50 assay, DGKα ADP-Glo assay. The note with it: 7.5 nM enzyme, 140 μM ATP, 80 μM DAG. In outline: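 Compounds at final 1.55˜10000 nM or 23.3˜150000 nM were tested against full-length DGKα. Substrate was lipid micelles of DAG and PS resuspended in 25 mM HEPES pH 7.0 with 0.5 mM EDTA and 160 mM octyl β-D-glucopyranoside. ADP formed was detected by ADP-Glo.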

The next assay deals with DGKζ (Homo sapiens (Human), UniProt Q13574). Nature of the assay: Biochemical DGK IC50 assay, DGKζ ADP-Glo assay. The note with it: 0.5 nM enzyme, 140 μM ATP, 80 μM DAG; read-out: DGKζ ADP-Glo assay IC50. Summed up:
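ADP formation measured by ADP-Glo luminescence, with test compounds at final 1.55–10000 nM or 23.3–150000 nM. Enzyme: purified full-length human DGKζ from Sf9 insect cells; substrate: DAG/PS micelles in 25 mM HEPES pH 7.0, 0.5 mM EDTA, octyl glucoside.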

The structures appear in SMILES notation.

DGKα, sequence (P23743 whole entry): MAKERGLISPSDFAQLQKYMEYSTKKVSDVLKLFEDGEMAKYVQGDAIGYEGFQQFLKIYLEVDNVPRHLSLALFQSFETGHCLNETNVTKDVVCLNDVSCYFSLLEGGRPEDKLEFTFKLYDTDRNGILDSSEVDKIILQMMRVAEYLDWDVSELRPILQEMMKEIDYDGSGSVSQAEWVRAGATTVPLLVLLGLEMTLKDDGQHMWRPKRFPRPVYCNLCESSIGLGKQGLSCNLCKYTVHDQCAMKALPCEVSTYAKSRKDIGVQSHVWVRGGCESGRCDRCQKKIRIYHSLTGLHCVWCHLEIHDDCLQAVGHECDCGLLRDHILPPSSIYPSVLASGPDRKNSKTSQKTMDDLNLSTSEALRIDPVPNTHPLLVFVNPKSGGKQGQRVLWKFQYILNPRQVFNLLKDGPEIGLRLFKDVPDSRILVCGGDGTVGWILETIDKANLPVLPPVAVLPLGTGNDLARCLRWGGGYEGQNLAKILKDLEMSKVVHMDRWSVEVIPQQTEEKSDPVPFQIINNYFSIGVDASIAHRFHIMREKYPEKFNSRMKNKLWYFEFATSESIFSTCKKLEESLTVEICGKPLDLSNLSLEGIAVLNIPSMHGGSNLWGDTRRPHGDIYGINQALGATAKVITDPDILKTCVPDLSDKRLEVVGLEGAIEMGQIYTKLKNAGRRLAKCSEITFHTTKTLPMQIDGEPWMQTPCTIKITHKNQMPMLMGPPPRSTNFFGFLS
DGKζ, sequence (Q13574 other isoform, or with tags, fused parts or gaps): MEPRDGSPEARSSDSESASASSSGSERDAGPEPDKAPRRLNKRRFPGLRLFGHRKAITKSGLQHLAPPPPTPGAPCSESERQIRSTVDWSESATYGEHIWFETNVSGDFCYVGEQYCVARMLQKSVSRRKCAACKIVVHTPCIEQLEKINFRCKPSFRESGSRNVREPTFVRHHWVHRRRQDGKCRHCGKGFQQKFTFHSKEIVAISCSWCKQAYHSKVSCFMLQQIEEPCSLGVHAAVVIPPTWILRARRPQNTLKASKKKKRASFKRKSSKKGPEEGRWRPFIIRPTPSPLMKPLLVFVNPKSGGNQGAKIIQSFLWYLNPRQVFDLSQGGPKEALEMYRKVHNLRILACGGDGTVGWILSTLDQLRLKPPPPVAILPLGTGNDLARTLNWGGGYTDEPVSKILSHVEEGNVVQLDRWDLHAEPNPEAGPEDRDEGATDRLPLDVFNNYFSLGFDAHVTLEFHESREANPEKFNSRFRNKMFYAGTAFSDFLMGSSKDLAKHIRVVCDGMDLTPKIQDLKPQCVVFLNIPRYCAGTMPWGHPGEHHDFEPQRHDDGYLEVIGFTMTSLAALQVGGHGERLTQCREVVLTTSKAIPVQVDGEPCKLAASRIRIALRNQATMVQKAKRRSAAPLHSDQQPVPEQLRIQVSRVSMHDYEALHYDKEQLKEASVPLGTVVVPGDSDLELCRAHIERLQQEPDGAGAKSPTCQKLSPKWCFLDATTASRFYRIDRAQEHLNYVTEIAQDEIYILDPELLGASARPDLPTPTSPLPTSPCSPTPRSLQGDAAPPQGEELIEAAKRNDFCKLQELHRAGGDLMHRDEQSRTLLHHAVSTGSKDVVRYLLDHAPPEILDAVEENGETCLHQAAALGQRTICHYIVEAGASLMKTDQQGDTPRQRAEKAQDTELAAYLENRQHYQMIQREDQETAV

Regarding `CC[C@@H]1CN(c2cc(=O)n(C)c3cn(CC#N)nc23)[C@@H](CC)CN1C(=O)c1cnc2ccccc2n1` [Compound A374], the values for the half-maximal inhibitory concentration (IC50) against DGKα and on DGKζ were 0.618 µM and 0.051 µM, respectively.

As to `COC(=O)C1CN(c2cc(=O)n(C)c3cn(CC#N)nc23)CCN1[C@H](C)c1ccc2nccnc2c1` (single isomer, unassigned) [Compound A173b], the IC50 at DGKα and at DGKζ was over 10 µM each time.

Take `CC[C@H]1CN(C(C)c2cc3ccccn3n2)[C@H](CC)CN1c1cc(=O)n(C)c2cn(CC#N)nc12` (some centres unmarked) [Compound A389]: the IC50 against DGKα turned out to be 0.043 µM; at DGKζ it was 0.201 µM.

Consider `CC[C@@H]1CN(c2cc(=O)[nH]c3c(C)n(CC#N)nc23)[C@@H](C)CN1C(C)c1ccc2nccnc2c1` (some centres unmarked) [Compound A264], for which the IC50 at DGKα is over 10 µM; at DGKζ it was 0.215 µM.

On to `CCC1CN(c2c(Br)c(=O)n(C)c3cn(CC#N)nc23)CCN1[C@@H](C)c1ccc2nccnc2c1` (stereo partly drawn) [Compound A179a, 2-(6-bromo-7-((2S,5R)-3-ethyl-4-(1-(quinoxalin-6-yl)ethyl)piperazin-1-yl)-4-methyl-5-oxo-4,5-dihydro-2H-pyrazolo[4,3-b]pyridin-2-yl)acetonitrile], for which the IC50 is over 10 µM at DGKα and 7.88 µM at DGKζ.

Turning to `CC[C@H]1CN(C(C)c2ncc(C(F)(F)F)cc2F)[C@H](CC)CN1c1cc(=O)n(C)c2cn(CC#N)nc12` (single isomer, unassigned) [Compound A354a], the IC50 on DGKα turned out to be 0.996 µM; at DGKζ it was 3.13 µM.

Regarding `C=CCn1cc2c(n1)c(N1C[C@@H](C)N([C@@H](C)c3ccc4ncc(C)nc4c3)C[C@@H]1C)cc(=O)n2C` [Compound A301, 2-allyl-7-((2S,5R)-2,5-dimethyl-4-((S)-1-(3-methylquinoxalin-6-yl)ethyl)piperazin-1-yl)-4-methyl-2,4-dihydro-5H-pyrazolo[4,3-b]pyridin-5-one], the IC50 against DGKα is over 150 µM; on DGKζ, 0.131 µM.

Regarding `CC[C@H]1CN(C(C)c2ccc(C)cc2F)[C@H](CC)CN1c1cc(=O)n(C)c2cn(CC#N)nc12` (some centres unmarked) [Compound A340], the IC50 against DGKα came to 0.485 µM; on DGKζ, 0.248 µM.

For `CC[C@H]1CN(C(C)c2ccc(F)cc2C(F)(F)F)[C@H](CC)CN1c1cc(=O)n(C)c2c[nH]nc12` (single isomer, unassigned) [Compound A275b], the values for the IC50 against DGKα and at DGKζ were over 10 µM and 4.39 µM, respectively.

As for `CC[C@H]1CN(C(C)c2ccc(OC3CCOC3)cc2)[C@H](CC)CN1c1cc(=O)n(C)c2cn(CC#N)nc12` (stereo partly drawn) [Compound A375, 2-(7-((2S,5R)-2,5-diethyl-4-(1-(4-((tetrahydrofuran-3-yl)oxy)phenyl)ethyl)piperazin-1-yl)-4-methyl-5-oxo-4,5-dihydro-2H-pyrazolo[4,3-b]pyridin-2-yl)acetonitrile], the 50% inhibitory concentration (IC50) against DGKα is 0.2 µM; at DGKζ, 0.944 µM.

Turning to `COCc1ccc(C(C)N2C[C@H](C)N(c3cc(=O)n(C)c4cn(CC#N)nc34)C[C@H]2C)cc1` (some centres unmarked) [Compound A31], the concentration for half-maximal inhibition (IC50) on DGKα amounted to 1.2 µM; on DGKζ, 8.1 µM.

Regarding `CC=CCn1cc2c(n1)c(N1C[C@@H](C)N([C@@H](C)c3ccc4ncc(C)nc4c3)C[C@@H]1C)cc(=O)n2C` [Compound A302, 2-(but-2-en-1-yl)-7-((2S,5R)-2,5-dimethyl-4-((S)-1-(3-methylquinoxalin-6-yl)ethyl)piperazin-1-yl)-4-methyl-2,4-dihydro-5H-pyrazolo[4,3-b]pyridin-5-one], the results for the IC50 against DGKα and on DGKζ were 35.4 µM and 0.068 µM, respectively.

For the molecule `CC[C@H]1CN(C(C)c2cnc(C)c(C)n2)[C@H](CC)CN1c1cc(=O)n(C)c2cn(CC#N)nc12` (single isomer, unassigned) [Compound A355a], the IC50 against DGKα worked out at 10.9 µM; at DGKζ, 6.42 µM.

For the molecule `Cc1nc2ccc(C(C)N3C[C@H](C)N(c4cc(=O)n(C)c5cn(CC#N)nc45)C[C@H]3C)cc2nc1C` (stereo partly drawn) [Compound A294, 2-(7-((2S,5R)-4-(1-(2,3-dimethylquinoxalin-6-yl)ethyl)-2,5-dimethylpiperazin-1-yl)-4-methyl-5-oxo-4,5-dihydro-2H-pyrazolo[4,3-b]pyridin-2-yl)acetonitrile], the IC50 on DGKα was found to be 69.6 µM; on DGKζ, 3.86 µM.

For `[2H]C([2H])([2H])c1cnc2ccc(C(C)N3C[C@H](C)N(c4cc(=O)n(C)c5cn(CC#N)nc45)C[C@H]3C)cc2n1` (single isomer, unassigned) [Compound A313a], the half-maximal inhibitory concentration (IC50) against DGKα turned out to be 116 µM; at DGKζ, 8.29 µM.

As for `CC[C@H]1CN(C(C)c2ccc3nccnc3c2)[C@H](CC)CN1c1cc(=O)n(CC(F)(F)F)c2cn(CC#N)nc12` (stereo partly drawn) [Compound A123, 2-(7-((2S,5R)-2,5-diethyl-4-(1-(quinoxalin-6-yl)ethyl)piperazin-1-yl)-5-oxo-4-(2,2,2-trifluoroethyl)-4,5-dihydro-2H-pyrazolo[4,3-b]pyridin-2-yl)acetonitrile], the IC50 against DGKα came out at 6.03 µM; on DGKζ it was 1.74 µM.

Consider `CC[C@H]1CN(C(C)c2ccc(C)cc2)[C@H](CC)CN1c1cc(=O)n(C)c2cn(CC#N)nc12` (single isomer, unassigned) [Compound A127b], for which the IC50 against DGKα is 0.177 µM; at DGKζ it was 3.71 µM.

Take `CC(c1ccc2nccnc2c1)N1C[C@H](C)N(c2cc(=O)n(C)c3cn(CC#N)nc23)C[C@H]1C` (mixture of isomers) [Compound A2, 2-(7-((2S,5R)-2,5-dimethyl-4-(1-(quinoxalin-6-yl)ethyl)piperazin-1-yl)-4-methyl-5-oxo-4,5-dihydro-2H-pyrazolo[4,3-b]pyridin-2-yl)acetonitrile]: the values for the IC50 on DGKα and at DGKζ were 7.7 µM and 0.071 µM, respectively.

Take `CC[C@H]1CN(C(C)c2ccc(F)cc2C(C)O)[C@H](CC)CN1c1cc(=O)n(C)c2cn(CC#N)nc12` (some centres unmarked) [Compound A188]: the IC50 was over 10 µM against DGKα and 0.786 µM on DGKζ.

With `CCc1c(C(C)N2C[C@H](CC)N(c3cc(=O)n(C)c4cn(CC#N)nc34)C[C@H]2CC)cnn1C` (single isomer, unassigned) [Compound A213b], the IC50 at DGKα and at DGKζ was over 10 µM throughout.

Take `CC(c1ccc2nc(C(F)(F)F)cnc2c1)N1C[C@H](C)N(c2cc(=O)n(C)c3cn(CC#N)nc23)C[C@H]1C` (stereo partly drawn) [Compound A315, 2-(7-((2S,5R)-2,5-dimethyl-4-(1-(2-(trifluoromethyl)quinoxalin-6-yl)ethyl)piperazin-1-yl)-4-methyl-5-oxo-4,5-dihydro-2H-pyrazolo[4,3-b]pyridin-2-yl)acetonitrile]: the IC50 at DGKα was determined as 61 µM; at DGKζ, 3.59 µM.

On to `CC(c1ccc(F)cc1C(F)(F)F)N1C[C@H](C)N(c2cc(=O)n(C)c3cn(CC#N)nc23)C[C@H]1C` (single isomer, unassigned) [Compound A236b], for which the IC50 on DGKα was found to be 77.4 µM; on DGKζ, 0.178 µM.

Take `CC[C@H]1CN(C(C)c2ccc3nc(O)cnc3c2)[C@H](CC)CN1c1cc(=O)n(C)c2cn(CC#N)nc12` (single isomer, unassigned) [Compound A282b]: the results for the IC50 on DGKα and on DGKζ were 10.5 µM and 6.96 µM, respectively.

As to `CC[C@H]1CN(C(C)c2cc3ccccc3n2CC)[C@H](CC)CN1c1cc(=O)n(C)c2cn(CC#N)nc12` (some centres unmarked) [Compound A176], the half-inhibitory concentration (IC50) on DGKα turned out to be 5.67 µM; on DGKζ it was 0.093 µM.

With `CC[C@@H]1CN(c2c(Br)c(=O)n(C)c3cn(CC#N)nc23)CCN1C(C)c1ccc2nccnc2c1` (single isomer, unassigned) [Compound A179b], the half-maximal inhibitory concentration (IC50) against DGKα and at DGKζ was over 10 µM in each case.

Consider `CC[C@H]1CN(C(C)c2nc3cccnc3n2CC)[C@H](CC)CN1c1cc(=O)n(C)c2cn(CC#N)nc12` (single isomer, unassigned) [Compound A185b], for which the results for the IC50 against DGKα and on DGKζ were 3.99 µM and 0.034 µM, respectively.

As to `CC[C@H]1CN(C(C)c2ccc(C)cc2C(F)(F)F)[C@H](CC)CN1c1cc(=O)n(C)c2cn(CC#N)nc12` (single isomer, unassigned) [Compound A115a], the IC50 on DGKα and at DGKζ was over 10 µM each time.

`CC[C@H]1CN(C(C)c2nn(CC)cc2C)[C@H](CC)CN1c1cc(=O)n(C)c2cn(CC#N)nc12` (some centres unmarked) [Compound A216]: the IC50 at DGKα is over 10 µM; at DGKζ, 2.37 µM.

Regarding `CC[C@H]1CN(C(C)c2cn(C)nc2C(F)(F)F)[C@H](CC)CN1c1cc(=O)n(C)c2cn(CC#N)nc12` (stereo partly drawn) [Compound A232, 2-(7-((2S,5R)-2,5-diethyl-4-(1-(1-methyl-3-(trifluoromethyl)-1H-pyrazol-4-yl)ethyl)piperazin-1-yl)-4-methyl-5-oxo-4,5-dihydro-2H-pyrazolo[4,3-b]pyridin-2-yl)acetonitrile], the IC50 against DGKα was 8.49 µM; at DGKζ, 3.11 µM.

For the molecule `COC1(c2cc(F)ccc2C(C)N2C[C@H](C)N(c3cc(=O)n(C)c4cn(CC#N)nc34)C[C@H]2C)CC1` (stereo partly drawn) [Compound A329, 2-(7-((2S,5R)-4-(1-(4-fluoro-2-(1-methoxycyclopropyl)phenyl)ethyl)-2,5-dimethylpiperazin-1-yl)-4-methyl-5-oxo-4,5-dihydro-2H-pyrazolo[4,3-b]pyridin-2-yl)acetonitrile], the IC50 was over 150 µM at DGKα and 0.091 µM at DGKζ.

`CC[C@H]1CN(C(C)c2ccc(F)cc2Br)[C@H](CC)CN1c1cc(=O)n(C)c2cn(CC#N)nc12` (stereo partly drawn) [Compound A111, 2-(7-((2S,5R)-4-(1-(2-bromo-4-fluorophenyl)ethyl)-2,5-diethylpiperazin-1-yl)-4-methyl-5-oxo-4,5-dihydro-2H-pyrazolo[4,3-b]pyridin-2-yl)acetonitrile]: the IC50 at DGKα was over 10 µM; at DGKζ, 0.096 µM.

Source of the values: patent US20240270751A1, “Pyrazolopyridinone Compounds” (BeiGene Ltd., priority 2021, published 2024).
